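1) Cells in 96-well plates. 2) Compound, 48 h, 5 concentrations. 3) Linear interpolation between surrounding doses. 4) Unreached endpoint = highest concentration. Abbreviation: GI50, concentration required for 50% inhibition of growth. TGI denotes the concentration required for complete inhibition of growth.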
Tests used:
Assay in all cases: NCI tumour cell line growth inhibition, 48 h
[1] = test system: DMS 114 small cell lung
[2] = test system: HOP-18 NSCLC
[3] = test system: P388 leukemia
[4] = test system: SN12K1 renal
[5] = test system: XF 498 CNS
[6] = test system: LXFL 529 NSCLC
[7] = test system: BT-549 breast
[8] = test system: DU-145 prostate
[9] = test system: HS 578T breast
[10] = test system: MDA-MB-435
[11] = test system: PC-3 prostate
[12] = test system: T-47D breast
[13] = test system: MDA-N

O=C(NC(Cc1ccc(I)cc1)C(=O)O)c1ccc(Br)cc1 (stereo not given)
TGI [1]: > 100 µM | TGI [2]: > 100 µM | TGI [3]: > 100 µM | TGI [4]: > 100 µM | TGI [5]: > 100 µM

COc1ccc(/C(Cl)=C(\C=O)c2ccc(F)cc2)cc1OC
TGI [1]: 46.2 µM | TGI [2]: 44.2 µM | TGI [6]: 76.7 µM

Cc1[nH]c(=O)[nH]c(=O)c1/C=C/C(=O)O
TGI [1]: > 1000 µM | TGI [2]: > 1000 µM | GI50 [3]: > 1000 µM | TGI [3]: > 1000 µM | TGI [4]: > 1000 µM | TGI [5]: > 1000 µM

C[C@]12CCc3nc(Nc4ccccc4)sc3C1=CC[C@@H]1[C@@H]2CC[C@]2(C)/C(=N/NC(N)=S)CC[C@@H]12
GI50 [7]: 3.26 µM | TGI [7]: > 100 µM | GI50 [8]: 2.96 µM | TGI [8]: > 100 µM | GI50 [9]: > 100 µM | TGI [9]: > 100 µM | GI50 [10]: 3.05 µM | TGI [10]: > 100 µM | GI50 [11]: 2.95 µM | TGI [11]: > 100 µM | GI50 [12]: 2.85 µM | TGI [12]: > 100 µM

COc1ccc2nc3ccccc3c(NCCCCCCN(CCCl)CCCl)c2c1
TGI [8]: 1.47 µM | TGI [6]: 1.72 µM | TGI [13]: 0.656 µM

COc1cc(Nc2c3ccccc3nc3ccccc23)ccc1NS(C)(=O)=O
TGI [2]: 26.3 µM | TGI [6]: 35 µM

Cc1ccc(S(=O)(=O)OCC(=O)O)cc1
TGI [7]: > 100 µM | TGI [8]: > 100 µM | TGI [9]: > 100 µM | TGI [13]: > 100 µM | TGI [11]: > 100 µM | TGI [12]: > 100 µM

COC(=O)C1=C(C(=O)OC)SC2(S1)C1=C(CCCC1)SC(C(=O)OC)=C2C(=O)OC
TGI [7]: 25.1 µM | TGI [8]: 3.54 µM | TGI [9]: 30.7 µM | TGI [10]: 10 µM | TGI [13]: 15.2 µM | TGI [11]: 17.8 µM | TGI [12]: 13.5 µM

Nc1ccc2[nH]c3c(-c4ccccc4)nccc3c2c1
TGI [1]: > 100 µM | TGI [2]: > 100 µM | TGI [3]: 46.5 µM | TGI [4]: > 100 µM | TGI [5]: > 100 µM

N=C(N)c1ccc(N=Nc2c(O)ccc3c2[nH]c2ccccc23)cc1
TGI [7]: 99.4 µM | TGI [8]: > 100 µM | TGI [9]: > 100 µM | TGI [10]: > 39.6 µM | TGI [13]: 50.6 µM | TGI [11]: > 60.3 µM

From PubChem BioAssay (NCI)
